Experiments:
ULK1 kinase = biological target: T1, ULK1 kinase (Homo sapiens, UniProt O75385, E37A/K38A); assay: Biochemical assay for ULK1 (coupled pyruvate kinase/lactate dehydrogenase assay); settings: 1 mM ATP, 0.1 nM ULK1; read-out: ULK1 (inhibition of biochemical activity), IC50
T1 construct: (residues 1-283; ID NO: 1); purchased Beryllium
T1 sequence (O75385 1-283 E37A/K38A): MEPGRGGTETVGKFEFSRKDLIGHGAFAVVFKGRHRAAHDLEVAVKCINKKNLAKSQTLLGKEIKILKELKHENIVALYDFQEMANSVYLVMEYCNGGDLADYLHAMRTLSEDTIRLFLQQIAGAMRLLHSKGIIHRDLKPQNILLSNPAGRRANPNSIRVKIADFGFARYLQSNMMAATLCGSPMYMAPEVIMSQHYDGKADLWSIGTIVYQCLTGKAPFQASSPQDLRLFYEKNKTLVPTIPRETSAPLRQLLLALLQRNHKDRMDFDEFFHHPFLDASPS
Experimental: Biochemical Assay for ULK1 (SEQ. ID NO: 1)
Activity of ULK1 kinase was determined spectroscopically using a coupled pyruvate kinase/lactate dehydrogenase assay that continuously monitors the ATP hydrolysis-dependent oxidation of NADH (e.g., Schindler et al. Science (2000) 289: 1938-1942). Assays were conducted in 384-well plates (100 μL final volume) using 0.1 nM ULK1 (from Beryllium), 0.075 mM peptide substrate (YANWLAASIYLDGKKK), 1.5 units pyruvate kinase, 2.1 units lactate dehydrogenase, 1 mM phosphoenol pyruvate, 0.28 mM NADH and 1 mM ATP in assay buffer (100 mM Tris, pH 7.5, 15 mM MgCl2, 0.5 mM DTT, 0.004% (w/v) BSA, and 0.004% Triton X-100). Inhibition of ULK1 was measured by adding serial diluted test compound (final assay concentration of 1% DMSO). A decrease in absorption at 340 nm was monitored continuously for 6 h at 30° C. on a multi-mode microplate reader (BioTek). The reaction rate was calculated using the 2-3 h time frame. The reaction rate at each concentration of compound was converted to percent inhibition using controls (i.e., reaction with no test compound and reaction with a known inhibitor) and IC50 values were calculated using software routines in Prism (GraphPad software).

[1] = tested on: ULK kinase substrate ATG13 (pS318-ATG13) in A549 (KRAS mutant) cells; assay: pATG13 levels of mutant KRas A549 cells after treatment with ULK inhibitors in combination with trametinib (ELISA); assay type: cell-based, human
Experimental: Cellular Inhibition of ULK Kinase Substrate ATG13 Protein pATG13 Levels of Mutant KRas A549 Cells after Treatment with ULK Inhibitors in Combination with Trametinib
(§1) A549 (KRAS mutant) human lung cancer cells (6,000 cells/well) were added to a 384-well tissue-culture treated plate in 50 μL of pre-warmed DMEM medium supplemented with 10% characterized fetal bovine serum (Invitrogen, Carlsbad, CA), 100 units/mL penicillin G, and 100 μg/mL streptomycin and allowed to grow overnight at 37° C., 5% CO2, and 95% humidity. The following day, 10 μL of media containing trametinib or DMSO as a control was added to wells. The final concentration of trametinib in wells was 250 nM. A dose response of a test compound (0.6 μL per well) was added. DMSO (0.6 μL) was added to control wells. The plate was briefly shaken to mix wells and then incubated at 37° C. overnight. The next day, the media was aspirated and cells were washed with Dulbecco's Phosphate Buffered Saline (Gibco). Cells were lysed using MPER lysis buffer (Pierce, Rockford, IL) containing Halt Phosphatase and Protease Inhibitors (Pierce, Rockford, IL) and Phosphatase inhibitor cocktail 2 (Sigma, St. Louis, MO) at 4° C. for 10 min with shaking.
(§2) Cellular levels of phospho-Serine 318 ATG13 (pATG13) were measured via an ELISA method. Total ATG13 Antibody (Cell Signaling Cat #13273) was used to coat the wells. The plate was incubated at 4° C. overnight and washed with ELISA wash buffer (Biolegend Cat #421601). The wells were then blocked with assay diluent (Biolegend Cat #421203) for 1 h at rt. Plate wells were washed with ELISA wash buffer. Cell lysate was added to wells and incubated at rt for 2 h. Plate wells were washed with ELISA wash buffer. Biotinylated pS318-ATG13 antibody (Rockland Immunochemicals Cat #600-401-C49) was diluted in assay diluent and added to each well and incubated at rt for 1 h. Plate wells were washed with ELISA wash buffer. Streptavidin linked to horseradish peroxidase (Thermo Fisher Cat #21140) was diluted in assay diluent and added to each well and incubated at rt for 1 h. Plate wells were washed with ELISA wash buffer. High sensitivity TMB substrate (Biolegend Cat #421101) was added to each well and incubated at rt for 20 min. The reaction was stopped with 2N Sulfuric Acid. The plate was analyzed at on a plate reader measuring absorbance at 450 nm and 540 nm (background). Signal was calculated by first subtracting the background absorbance at 540 nm from the absorbance at 450 nm for each well. Next, the background corrected absorbance at 450 nm from blank wells was subtracted from test wells. Data was compared to control wells to determine % ATG13 phosphorylation. GraphPad Prism was used to calculate IC50 values.

[2] = tested on: ULK kinase substrate ATG13 (pS318-ATG13) in MiaPaCa-2 cells; assay: pATG13 levels of mutant KRas MiaPaCa-2 cells after treatment with ULK inhibitors in combination with trametinib (ELISA); assay type: cell-based, human
Experimental: pATG13 Levels of Mutant KRas MiaPaCa-2 Cells after Treatment with ULK Inhibitors in Combination with Trametinib
as §1, with “MiaPaCa-2” for “A549 (KRAS mutant)”, “pancreatic” for “lung”, “(10000” for “(6,000”, “G,” for “G, and”, “streptomycin, and 2.5% Horse Serum” for “streptomycin”, “minutes” for “min”
as §2, with “2.0N sulfuric acid.” for “2N Sulfuric Acid.”

ULK2 kinase = biological target: T2, ULK2 kinase (Homo sapiens, UniProt Q8IYT8); assay: Biochemical assay for ULK2 (coupled pyruvate kinase/lactate dehydrogenase assay); settings: 1 mM ATP, 1 nM ULK2; read-out: ULK2 (inhibition of biochemical activity), IC50
T2 construct: (residues 1-306 with N-terminal GST and His tag; ID NO: 2); purchased Signal Chem U02-11G
Experimental: Biochemical Assay for ULK2 (SEQ. ID NO: 2)
Activity of ULK2 kinase was determined spectroscopically using a coupled pyruvate kinase/lactate dehydrogenase assay that continuously monitors the ATP hydrolysis-dependent oxidation of NADH (e.g., Schindler et al. Science (2000) 289: 1938-1942). Assays were conducted in 384-well plates (100 μL final volume) using 1 nM ULK2 (Signal Chem U02-11G), 200 μM ULKtide, 1.5 units pyruvate kinase, 2.1 units lactate dehydrogenase, 1 mM phosphoenol pyruvate, 0.28 mM NADH and 1 mM ATP in assay buffer (100 mM Tris, pH 7.5, 15 mM MgCl2, 0.5 mM DTT, 0.1% octyl-glucoside, 0.002% (w/v) BSA, and 0.002% Triton X-100). Inhibition of ULK2 was measured by adding serial diluted test compound (final assay concentration of 1% DMSO). A decrease in absorption at 340 nm was monitored continuously for 6 h at 30° C. on a multi-mode microplate reader (BioTek). The reaction rate was calculated using the 2-3 h time frame. The reaction rate at each concentration of compound was converted to percent inhibition using controls (i.e., reaction with no test compound and reaction with a known inhibitor) and IC50 values were calculated by fitting a four-parameter sigmoidal curve to the data using Prism (GraphPad software).

T2 sequence (Q8IYT8 with tags, fused parts or gaps): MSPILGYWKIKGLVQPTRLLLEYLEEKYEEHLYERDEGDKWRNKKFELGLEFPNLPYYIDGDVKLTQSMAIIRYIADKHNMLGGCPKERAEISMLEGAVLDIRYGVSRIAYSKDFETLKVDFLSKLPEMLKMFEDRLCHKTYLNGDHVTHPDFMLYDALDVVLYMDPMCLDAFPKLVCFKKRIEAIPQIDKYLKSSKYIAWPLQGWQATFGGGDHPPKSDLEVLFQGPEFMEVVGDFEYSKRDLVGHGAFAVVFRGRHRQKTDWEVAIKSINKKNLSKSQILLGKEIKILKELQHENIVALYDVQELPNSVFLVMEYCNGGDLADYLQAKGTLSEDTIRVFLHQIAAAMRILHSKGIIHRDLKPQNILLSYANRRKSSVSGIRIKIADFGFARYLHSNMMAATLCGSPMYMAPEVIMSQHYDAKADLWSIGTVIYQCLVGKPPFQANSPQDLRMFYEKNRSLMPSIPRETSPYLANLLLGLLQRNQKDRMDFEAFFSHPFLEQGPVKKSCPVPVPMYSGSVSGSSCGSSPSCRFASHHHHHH

| Compound | IC50 (ULK1 kinase) | IC50 [1] | IC50 [2] | IC50 (ULK2 kinase) |
| --- | --- | --- | --- | --- |
| CC/C(Nc1cnn(C2CCN(C(C)C)CC2)c1)=C1/C(=O)Nc2ccc(C(=O)N(C)C)cc21 [Example 2, (Z)-3-(1-((1-(1-isopropylpiperidin-4-yl)-1H-pyrazol-4-yl)amino)propylidene)-N,N-dimethyl-2-oxoindoline-5-carboxamide] | 100 to 500 nM | > 600 nM | 100 to 300 nM |  |
| CC/C(Nc1cnn(C(C)C)c1)=C1/C(=O)Nc2ccc(C(=O)C3CC3)cc21 [Example 6, (Z)-5-(cyclopropanecarbonyl)-3-(1-((1-isopropyl-1H-pyrazol-4-yl)amino)propylidene)indolin-2-one] | 10 to 100 nM | 100 to 300 nM |  | 100 to 500 nM |
| CC/C(Nc1ccc(N2CCN(C)CC2)cc1)=C1/C(=O)Nc2ccc(C(=O)NCCOC)cc21 [Example 11] | 10 to 100 nM | 300 to 600 nM | ≤ 100 nM |  |
| CCCNC(=O)c1ccc2c(c1)/C(=C(\CC)Nc1cnn(C3CCN(C(C)C)CC3)c1)C(=O)N2 [Example 15] | ≤ 10 nM | ≤ 100 nM | ≤ 100 nM |  |
| C/C(Nc1cnn(C2CCN(C(C)C)CC2)c1)=C1/C(=O)Nc2ccc(C(=O)NCC(F)(F)F)cc21 [Example 24] | ≤ 10 nM | 300 to 600 nM | ≤ 100 nM |  |
| CC/C(Nc1cnn(C2CCN(C3CCC3)CC2)c1)=C1/C(=O)Nc2ccc(C(=O)NCC(C)C)cc21 [Example 32] | ≤ 10 nM | ≤ 100 nM | ≤ 100 nM |  |
| CC/C(Nc1cnn(C2CCN(C3CCCC3)CC2)c1)=C1/C(=O)Nc2ccc(C(=O)NCC(C)C)cc21 [Example 33] | ≤ 10 nM | ≤ 100 nM | ≤ 100 nM |  |
| CC/C(Nc1cnn(C2CCN(C3CCCCC3)CC2)c1)=C1/C(=O)Nc2ccc(C(=O)NCC(C)C)cc21 [Example 34] | ≤ 10 nM | ≤ 100 nM | ≤ 100 nM |  |
| CC/C(Nc1cnn(C2CCN(C3COC3)CC2)c1)=C1/C(=O)Nc2ccc(C(=O)NCC(C)C)cc21 [Example 35] | ≤ 10 nM | 300 to 600 nM | ≤ 100 nM |  |
| CC/C(Nc1cnn(C2CCN(C3CCOC3)CC2)c1)=C1/C(=O)Nc2ccc(C(=O)NCC(C)C)cc21 (stereo not drawn) [Example 36] | ≤ 10 nM | 100 to 300 nM | ≤ 100 nM |  |
| CC/C(Nc1cnn(C2CCN(CC(C)C)CC2)c1)=C1/C(=O)Nc2ccc(C(=O)NCC(C)C)cc21 [Example 38] | ≤ 10 nM | ≤ 100 nM | ≤ 100 nM |  |
| CC/C(Nc1cnn(C2CCN(CC3CC3)CC2)c1)=C1/C(=O)Nc2ccc(C(=O)NCC(C)C)cc21 [Example 39] | ≤ 10 nM | ≤ 100 nM | ≤ 100 nM |  |
| CC/C(Nc1cnn(C2CCN(CC3CCC3)CC2)c1)=C1/C(=O)Nc2ccc(C(=O)NCC(C)C)cc21 [Example 40] | ≤ 10 nM | ≤ 100 nM | ≤ 100 nM |  |
| CC/C(Nc1cnn(C2CCN(CCOC)CC2)c1)=C1/C(=O)Nc2ccc(C(=O)NCC(C)C)cc21 [Example 41] | ≤ 10 nM | ≤ 100 nM | ≤ 100 nM |  |
| CC/C(Nc1ccc(N2CCN(C)CC2)c(F)c1)=C1/C(=O)Nc2ccc(C(=O)NCC(F)(F)F)cc21 [Example 72] | ≤ 10 nM |  | ≤ 100 nM | ≤ 10 nM |
| CC/C(Nc1ccc(N2CCN(C)CC2)cc1F)=C1/C(=O)Nc2ccc(C(=O)NCC(F)(F)F)cc21 [Example 73] | 100 to 500 nM |  | 100 to 300 nM | 100 to 500 nM |
| CC/C(Nc1cnc(N2CCN(C)CC2)nc1)=C1/C(=O)Nc2ccc(C(=O)NCC(F)(F)F)cc21 [Example 76] | 100 to 500 nM |  | 100 to 300 nM | > 500 nM |
| CC/C(Nc1cnn(C2CCN(C(C)C)CC2)c1)=C1/C(=O)Nc2ccc(C(=O)NCC3(C)CCCO3)cc21 (stereo not drawn) [Example 174] | ≤ 10 nM | ≤ 100 nM |  | 10 to 100 nM |

Reference: patent publication US20240150368A1, “ULK INHIBITORS AND METHODS OF USE THEREOF” (Deciphera Pharmaceuticals, LLC, priority 2022, published 2024)
